The source made the active and inactive calls. The rule behind the calls is not given here.
Legend:
HL-60 = assay: Antiproliferative activity against human HL60 cells after 72 hrs by trypan blue assay; assay type: functional, cell-based; settings: HL-60, 72 h
HeLa = assay: Antiproliferative activity against human HeLa cells after 72 hrs by trypan blue assay; assay type: functional, cell-based
[1] = Antiproliferative activity against human JR8 cells after 72 hrs by trypan blue assay; assay type: functional, cell-based; settings: JR8, 72 h
Nucleic Acid = assay: Binding affinity to salmon testes DNA assessed as occurrence of intercalative molecular complex by linear flow dichroism; assay type: nucleic-acid assay; settings: Salmonidae
[2] = biological target: DNA topoisomerase 2-alpha (Homo sapiens) (UniProt P11388); assay: Inhibition of human recombinant topoisomerase 2 catalytic activity at 20 uM by agarose gel electrophoresis
[3] = biological target: DNA topoisomerase 2-alpha (Homo sapiens) (UniProt P11388); assay: Inhibition of human recombinant topoisomerase 2-mediated relaxation of supercoiled pBR322 DNA after 60 mins by agarose gel electrophoresis
[4] = biological target: DNA topoisomerase 2-alpha (Homo sapiens) (UniProt P11388); assay: Inhibition of human recombinant topoisomerase 2 assessed as induction of linear pBR322 DNA formation upto 20 uM by agarose gel electrophoresis
[5] = biological target: DNA topoisomerase 2-alpha (Homo sapiens) (UniProt P11388); assay: Inhibition of human recombinant topoisomerase 2 assessed as induction of linear pBR322 DNA formation at 50 uM by agarose gel electrophoresis
[6] = biological target: DNA topoisomerase 2-alpha (Homo sapiens) (UniProt P11388); assay: Inhibition of human recombinant topoisomerase 2-mediated relaxation of supercoiled pBR322 DNA at 10 uM after 60 mins by agarose gel electrophoresis
[7] = biological target: DNA topoisomerase 2-alpha (Homo sapiens) (UniProt P11388); assay: Inhibition of human recombinant topoisomerase 2 assessed as induction of linear pBR322 DNA formation at 15 uM by agarose gel electrophoresis

DNA topoisomerase 2-alpha (Homo sapiens), sequence (P11388 whole entry): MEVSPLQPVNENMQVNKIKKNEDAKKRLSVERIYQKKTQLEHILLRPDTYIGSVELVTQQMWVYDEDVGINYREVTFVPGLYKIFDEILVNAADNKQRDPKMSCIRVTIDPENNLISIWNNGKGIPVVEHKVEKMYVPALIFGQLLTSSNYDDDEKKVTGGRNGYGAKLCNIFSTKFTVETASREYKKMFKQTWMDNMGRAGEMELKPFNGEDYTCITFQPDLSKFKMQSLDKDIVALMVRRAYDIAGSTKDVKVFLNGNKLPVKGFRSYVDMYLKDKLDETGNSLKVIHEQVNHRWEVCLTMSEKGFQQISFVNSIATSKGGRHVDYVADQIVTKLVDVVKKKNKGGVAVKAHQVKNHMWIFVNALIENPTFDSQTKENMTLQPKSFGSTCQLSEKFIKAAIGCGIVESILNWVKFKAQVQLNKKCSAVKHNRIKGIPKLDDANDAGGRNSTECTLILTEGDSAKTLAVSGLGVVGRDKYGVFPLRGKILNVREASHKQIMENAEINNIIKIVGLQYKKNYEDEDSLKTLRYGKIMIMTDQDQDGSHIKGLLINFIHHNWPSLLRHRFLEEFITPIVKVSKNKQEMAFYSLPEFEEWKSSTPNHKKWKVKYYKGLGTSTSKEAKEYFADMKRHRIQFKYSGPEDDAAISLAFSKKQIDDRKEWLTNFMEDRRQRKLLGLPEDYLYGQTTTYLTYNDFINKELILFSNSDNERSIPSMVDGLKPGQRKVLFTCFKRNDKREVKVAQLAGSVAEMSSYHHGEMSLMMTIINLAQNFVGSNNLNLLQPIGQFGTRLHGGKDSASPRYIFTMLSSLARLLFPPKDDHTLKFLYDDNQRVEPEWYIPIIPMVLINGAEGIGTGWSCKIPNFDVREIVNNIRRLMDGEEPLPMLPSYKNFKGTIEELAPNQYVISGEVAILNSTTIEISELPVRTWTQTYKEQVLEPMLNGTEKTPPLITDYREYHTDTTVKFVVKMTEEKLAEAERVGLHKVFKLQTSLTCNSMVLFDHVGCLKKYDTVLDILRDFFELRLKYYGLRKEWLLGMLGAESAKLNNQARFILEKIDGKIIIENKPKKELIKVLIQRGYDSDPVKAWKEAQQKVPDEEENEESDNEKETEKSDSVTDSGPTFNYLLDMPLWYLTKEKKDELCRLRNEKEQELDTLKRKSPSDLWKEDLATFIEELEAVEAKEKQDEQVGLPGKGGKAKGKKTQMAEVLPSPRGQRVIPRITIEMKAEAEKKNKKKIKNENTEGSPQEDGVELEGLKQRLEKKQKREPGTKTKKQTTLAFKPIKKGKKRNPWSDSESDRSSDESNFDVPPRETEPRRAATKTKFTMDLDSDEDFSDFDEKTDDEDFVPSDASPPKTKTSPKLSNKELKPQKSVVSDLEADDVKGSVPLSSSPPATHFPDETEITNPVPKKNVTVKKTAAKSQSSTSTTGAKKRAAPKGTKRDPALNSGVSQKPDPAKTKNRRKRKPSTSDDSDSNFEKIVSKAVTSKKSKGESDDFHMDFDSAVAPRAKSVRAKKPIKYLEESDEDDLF

Compound | IC50 (HL-60) | IC50 (HeLa) | IC50 [1] | Activity (Nucleic Acid) | Activity [2] | Activity [3] | Activity [4] | Activity [5] | Activity [6] | Activity [7]
O=C(/C=C/c1cccs1)c1ccc(Nc2ccnc3ccc4[nH]ccc4c23)cc1 | 3.2 µM | 5.3 µM | 2.1 µM | – | – | – | – | – | – | –
O=C(/C=C/c1ccc[nH]1)c1ccc(Nc2ccnc3ccc4[nH]ccc4c23)cc1 | 5.6 µM | 18.1 µM | 3.3 µM | – | – | – | – | – | – | –
O=C(/C=C/c1ccc([N+](=O)[O-])cc1)c1ccccc1 | 6 µM | > 20 µM | 7.8 µM | inactive | inactive | – | – | – | – | –
CC(=O)/C=C/c1ccc(Nc2ccnc3ccc4[nH]ccc4c23)cc1 | 2.3 µM | 7 µM | 1.6 µM | Active | inactive | Dose-dependent effect | inactive | inactive | – | –
CC(=O)/C=C/c1ccccc1 [BUTENONE] | – | – | – | inactive | – | – | – | – | – | –
Cc1c2ccncc2c(C)c2c1[nH]c1ccccc12 [ELLIPTECINE] | – | – | 1.1 µM | Active | – | – | – | – | – | –
O=C(/C=C/c1ccc([N+](=O)[O-])cc1)c1ccc(Nc2ccnc3ccc4[nH]ccc4c23)cc1 | 4.4 µM | 10.4 µM | 1.2 µM | – | Active | Dose-dependent effect | inactive | inactive | Active | –
O=C(/C=C/c1ccc[nH]1)c1ccccc1 | > 20 µM | > 20 µM | > 20 µM | inactive | – | – | – | – | – | –
COc1cc(NS(C)(=O)=O)ccc1Nc1c2ccccc2nc2ccccc12 | – | – | – | Active | – | – | – | – | – | Active

From ChEMBL document CHEMBL1152492, “DNA-targeting pyrroloquinoline-linked butenone and chalcones: synthesis and biological evaluation” (Eur J Med Chem, 2009)
